Test results taken from patent US20240109864A1, “SUBSTITUTED PYRAZOLYL PIPERIDINE CARBOXYLIC ACIDS” (BAYER AKTIENGESELLSCHAFT, priority 2020, published 2024).
Where a name gives a salt, the structure may show the parent alone.

Molecular target: T1, recombinant guanylate cyclase reporter cell line (Rattus norvegicus, UniProt P20595)
T1 construct: expressed in transfected cells
T1 sequence (P20595 1-619): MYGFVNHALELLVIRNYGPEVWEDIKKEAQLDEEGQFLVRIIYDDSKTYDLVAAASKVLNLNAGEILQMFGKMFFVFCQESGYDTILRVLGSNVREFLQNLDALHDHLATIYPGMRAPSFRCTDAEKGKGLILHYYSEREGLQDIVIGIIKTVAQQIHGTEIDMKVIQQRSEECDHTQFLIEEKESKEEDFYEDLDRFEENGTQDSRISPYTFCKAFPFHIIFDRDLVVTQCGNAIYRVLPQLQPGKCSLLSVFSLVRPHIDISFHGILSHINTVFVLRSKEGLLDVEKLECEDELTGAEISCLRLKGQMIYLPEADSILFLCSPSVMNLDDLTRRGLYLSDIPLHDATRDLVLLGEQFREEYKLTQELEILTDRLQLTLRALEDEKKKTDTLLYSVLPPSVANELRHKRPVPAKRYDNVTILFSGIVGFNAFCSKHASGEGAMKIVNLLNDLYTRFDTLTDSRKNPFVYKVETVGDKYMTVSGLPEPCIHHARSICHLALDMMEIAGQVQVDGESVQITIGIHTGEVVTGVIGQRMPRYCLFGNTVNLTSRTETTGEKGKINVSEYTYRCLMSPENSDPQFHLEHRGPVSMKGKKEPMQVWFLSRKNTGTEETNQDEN
T1 sequence (P19686 1-690 partner): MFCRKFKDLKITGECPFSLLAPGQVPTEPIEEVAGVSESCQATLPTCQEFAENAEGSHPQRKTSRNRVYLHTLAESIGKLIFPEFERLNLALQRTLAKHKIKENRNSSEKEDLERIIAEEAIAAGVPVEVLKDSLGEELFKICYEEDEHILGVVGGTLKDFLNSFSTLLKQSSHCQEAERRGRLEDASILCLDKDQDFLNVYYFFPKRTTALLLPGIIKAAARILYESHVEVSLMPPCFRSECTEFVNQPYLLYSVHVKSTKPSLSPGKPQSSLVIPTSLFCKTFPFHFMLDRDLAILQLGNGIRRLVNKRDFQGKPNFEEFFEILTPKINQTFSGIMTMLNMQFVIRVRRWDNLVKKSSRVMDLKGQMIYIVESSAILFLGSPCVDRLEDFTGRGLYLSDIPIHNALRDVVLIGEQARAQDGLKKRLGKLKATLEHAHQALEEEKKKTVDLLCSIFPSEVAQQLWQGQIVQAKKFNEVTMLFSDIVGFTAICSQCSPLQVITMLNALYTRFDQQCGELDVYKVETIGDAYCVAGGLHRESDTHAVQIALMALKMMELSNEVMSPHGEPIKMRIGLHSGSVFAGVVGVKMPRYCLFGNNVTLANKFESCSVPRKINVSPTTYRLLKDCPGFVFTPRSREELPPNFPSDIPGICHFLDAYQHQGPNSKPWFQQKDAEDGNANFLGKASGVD
Test: Effect on a recombinant guanylate cyclase reporter cell line
Format: cell-based
Conditions: in some cases mean values from individual determinations; for MEC: MEC = minimum effective concentration; for EC50: half maximal effective concentration
Procedure: The cellular activity of the compounds according to the invention was determined using a recombinant guanylate cyclase reporter cell line, as described in F. Wunder et al., Anal. Biochem. 339, 104-112 (2005).

| Structure (SMILES) | MEC (hydrochloride) [nM] | EC50 [nM] | MEC [nM] |
| --- | --- | --- | --- |
| O=C(O)c1cnn(C2CCCN(c3cc(Cl)ccc3-c3ccc(C4CCN(C(=O)C5CC5)CC4)cc3)C2)c1C(F)(F)F (single isomer, unassigned) [Example 84, 1-[1-[5-Chloro-2-[4-[1-(cyclopropanecarbonyl)-4-piperidyl]phenyl]phenyl]-3-piperidyl]-5-(trifluoromethyl)pyrazole-4-carboxylic acid hydrochloride] | 0.3 | 2.5 |  |
| O=C(O)c1cnn(C2CCCN(c3cc(Cl)ccc3-c3ccc(C4CN(CCC(F)(F)F)C4)cc3)C2)c1C(F)(F)F (single isomer, unassigned) [Example 78, 1-[1-[5-Chloro-2-[4-[1-(3,3,3-trifluoropropyl)azetidin-3-yl]phenyl]phenyl]-3-piperidyl]-5-(trifluoromethyl)pyrazole-4-carboxylic acid hydrochloride] |  | 13.2 | 1.0 |
| CC(F)(F)CN1CCN(c2ccc(-c3ccc(Cl)cc3N3CCCC(n4ncc(C(=O)O)c4C(F)(F)F)C3)cc2)CC1 (single isomer, unassigned) [Example 11, 1-[1-[5-Chloro-2-[4-[4-(2,2-difluoropropyl)piperazin-1-yl]phenyl]phenyl]-3-piperidyl]-5-(trifluoromethyl)pyrazole-4-carboxylic acid hydrochloride] |  | 1.4 | 0.3 |
| O=C(O)c1cnn(C2CCCN(c3cc(Cl)ccc3-c3ccc(N4CCN(CC5(C(F)(F)F)CC5)CC4)cc3)C2)c1C(F)(F)F (single isomer, unassigned) [Example 34, 1-[1-[5-Chloro-2-[4-[4-[[1-(trifluoromethyl)cyclopropyl]methyl]piperazin-1-yl]phenyl]phenyl]-3-piperidyl]-5-(trifluoromethyl)pyrazole-4-carboxylic acid hydrochloride] |  | 40.5 | 10.0 |
| CC(C)COC(=O)N1CCN(c2ccc(-c3ccc(Cl)cc3N3CCCC(n4ncc(C(=O)O)c4C(F)(F)F)C3)cc2)CC1 (single isomer, unassigned) [Example 59, 1-[1-[5-Chloro-2-[4-(4-isobutoxycarbonylpiperazin-1-yl)phenyl]phenyl]-3-piperidyl]-5-(trifluoromethyl)pyrazole-4-carboxylic acid] |  | 40.5 | 10.0 |
| O=C(O)c1cnn(C2CCCN(c3cc(Cl)ccc3-c3ccc(N4CCN(CC5CC5(F)F)CC4)cc3)C2)c1C(F)(F)F (mixture of isomers) [Example 31, 1-[1-[5-Chloro-2-[4-[4-[[2,2-difluorocyclopropyl]methyl]piperazin-1-yl]phenyl]phenyl]-3-piperidyl]-5-(trifluoromethyl)pyrazole-4-carboxylic acid hydrochloride] |  | 3.8 | 1.0 |
| CCN1CCN(c2ccc(-c3ccc(Cl)cc3N3CCCC(n4ncc(C(=O)O)c4C(F)(F)F)C3)c(C)c2)CC1 (single isomer, unassigned) [Example 73, 1-[1-[5-Chloro-2-[4-(4-ethylpiperazin-1-yl)-2-methyl-phenyl]phenyl]-3-piperidyl]-5-(trifluoromethyl)pyrazole-4-carboxylic acid hydrochloride] |  | 58 | 30.0 |

Second part, the compound after the results:

| MEC (hydrochloride) [nM] | EC50 [nM] | MEC [nM] | Structure (SMILES) |
| --- | --- | --- | --- |
|  | 15.5 | 3.0 | CC(C)C(=O)N1CCN(c2ccc(-c3ccc(Cl)cc3N3CCCC(n4ncc(C(=O)O)c4C(F)(F)F)C3)cc2)CC1 (single isomer, unassigned) [Example 38, 1-[1-[5-Chloro-2-[4-[4-(2-methylpropanoyl)piperazin-1-yl]phenyl]phenyl]-3-piperidyl]-5-(trifluoromethyl)pyrazole-4-carboxylic acid] |
|  | 14.5 | 3.0 | O=C(O)c1cnn(C2CCCN(c3cc(Cl)ccc3-c3ccc(N4CCN(C(=O)[C@@H]5C[C@@H]5F)CC4)cc3)C2)c1C(F)(F)F (single isomer, unassigned) [Example 46] |
|  | 26.5 | 3.0 | O=C(O)c1cnn(C2CCCN(c3cc(Cl)ccc3-c3ccc(N4CCN(CC5CCC5)CC4)cc3)C2)c1C(F)(F)F (single isomer, unassigned) [Example 19, 1-[1-[5-Chloro-2-[4-[4-(cyclobutylmethyl)piperazin-1-yl]phenyl]phenyl]-3-piperidyl]-5-(trifluoromethyl)pyrazole-4-carboxylic acid hydrochloride] |
|  | 15.1 | 1.0 | O=C(O)c1cnn(C2CCCN(c3cc(Cl)ccc3-c3ccc(N4CCN(C(=O)C5(F)CC5)CC4)cc3)C2)c1C(F)(F)F (single isomer, unassigned) [Example 43, 1-[1-[5-Chloro-2-[4-[4-(1-fluorocyclopropanecarbonyl)piperazin-1-yl]phenyl]phenyl]-3-piperidyl]-5-(trifluoromethyl)pyrazole-4-carboxylic acid] |
|  | 10.6 | 3.0 | O=C(O)c1cnn(C2CCCN(c3cc(Cl)ccc3-c3ccc(N4CCN(C(=O)[C@H]5CC5(F)F)CC4)cc3)C2)c1C(F)(F)F (single isomer, unassigned) [Example 48, 1-[1-[5-Chloro-2-[4-[4-[2,2-difluorocyclopropanecarbonyl]piperazin-1-yl]phenyl]phenyl]-3-piperidyl]-5-(trifluoromethyl)pyrazole-4-carboxylic acid] |
|  | 11.1 | 3.0 | COC(=O)N1CCN(c2ccc(-c3ccc(Cl)cc3N3CCCC(n4ncc(C(=O)O)c4C(F)(F)F)C3)cc2)CC1 (single isomer, unassigned) [Example 54, 1-[1-[5-Chloro-2-[4-(4-methoxycarbonylpiperazin-1-yl)phenyl]phenyl]-3-piperidyl]-5-(trifluoromethyl)pyrazole-4-carboxylic acid] |
|  | 21 | 3.0 | O=C(O)c1cnn(C2CCCN(c3cc(Cl)ccc3-c3ccc(N4CCN(C(=O)OCC5CCC5)CC4)cc3)C2)c1C(F)(F)F (single isomer, unassigned) [Example 61, 1-[1-[5-Chloro-2-[4-[4-(cyclobutylmethoxycarbonyl)piperazin-1-yl]phenyl]phenyl]-3-piperidyl]-5-(trifluoromethyl)pyrazole-4-carboxylic acid] |
|  | 47.5 | 10.0 | O=C(O)c1cnn(C2CCCN(c3cc(Cl)ccc3-c3ccc(N4CCN(C(=O)C5CC(F)(F)C5)CC4)cc3)C2)c1C(F)(F)F (single isomer, unassigned) [Example 50, 1-[1-[5-Chloro-2-[4-[4-(3,3-difluorocyclobutanecarbonyl)piperazin-1-yl]phenyl]phenyl]-3-piperidyl]-5-(trifluoromethyl)pyrazole-4-carboxylic acid] |
|  | 84 | 30.0 | O=C(O)c1cnn(C2CCCN(c3cc(Cl)ccc3-c3ccc(N4CCN(C(=O)OCCOC(F)(F)F)CC4)cc3)C2)c1C(F)(F)F (single isomer, unassigned) [Example 64, 1-[1-[5-Chloro-2-[4-[4-[2-(trifluoromethoxy)ethoxycarbonyl]piperazin-1-yl]phenyl]phenyl]-3-piperidyl]-5-(trifluoromethyl)pyrazole-4-carboxylic acid] |
|  | 34.5 | 10.0 | O=C(O)c1cnn(C2CCCN(c3cc(Cl)ccc3-c3ccc(N4CCN(C(=O)C5CC5F)CC4)cc3)C2)c1C(F)(F)F (single isomer, unassigned) [Example 44, 1-[1-[5-Chloro-2-[4-[4-(2-fluorocyclopropanecarbonyl)piperazin-1-yl]phenyl]phenyl]-3-piperidyl]-5-(trifluoromethyl)pyrazole-4-carboxylic acid] |
|  | 6.3 | 1.0 | O=C(O)c1cnn(C2CCCN(c3cc(Cl)ccc3-c3ccc(N4CCN(C(=O)OC5CC5)CC4)cc3)C2)c1C(F)(F)F (single isomer, unassigned) [Example 57, 1-[1-[5-Chloro-2-[4-[4-(cyclopropoxycarbonyl)piperazin-1-yl]phenyl]phenyl]-3-piperidyl]-5-(trifluoromethyl)pyrazole-4-carboxylic acid] |
